From PubChem BioAssay (NCI)
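These data come from cells grown in 96-well plates and exposed to compound for 48 hours at five concentrations. At the GI50, growth is halved. TGI: concentration producing complete growth inhibition.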

How the values were obtained:
Assay in all cases: NCI-60 cell line screen, 48 h
IGROV1 ovarian = tested on: IGROV1 ovarian
KM12 colon = tested on: KM12 colon
EKVX NSCLC = tested on: EKVX NSCLC
PC-3 prostate = tested on: PC-3 prostate
K-562 leukemia = tested on: K-562 leukemia
NCI/ADR-RES ovarian = tested on: NCI/ADR-RES ovarian
HCT-116 colon = tested on: HCT-116 colon
SF-295 CNS = tested on: SF-295 CNS
COLO 205 colon = tested on: COLO 205 colon
MALME-3M melanoma = tested on: MALME-3M melanoma

SMILES | TGI (IGROV1 ovarian) | TGI (KM12 colon) | TGI (EKVX NSCLC) | TGI (PC-3 prostate) | TGI (K-562 leukemia) | TGI (NCI/ADR-RES ovarian) | TGI (HCT-116 colon) | TGI (SF-295 CNS) | TGI (COLO 205 colon) | TGI (MALME-3M melanoma) | GI50 (IGROV1 ovarian) | GI50 (KM12 colon) | GI50 (EKVX NSCLC) | GI50 (PC-3 prostate) | GI50 (K-562 leukemia) | GI50 (NCI/ADR-RES ovarian) | GI50 (HCT-116 colon) | GI50 (SF-295 CNS) | GI50 (COLO 205 colon) | GI50 (MALME-3M melanoma)
CCC(c1ccccc1)c1cc(C(C)(C)C)cc(C(C)(C)C)c1O (stereo not given) | 30.7 µM | 32.3 µM | 32.2 µM | 31.6 µM | 34 µM | 28.7 µM | 25.5 µM | 26.9 µM | 34.2 µM | 26.8 µM | – | – | – | – | – | – | – | – | – | –
O=C1C=CC(=O)c2c1nc(CBr)[nH]c2=O | > 100 µM | > 100 µM | > 100 µM | > 100 µM | > 100 µM | > 100 µM | > 100 µM | > 100 µM | > 100 µM | > 100 µM | – | – | – | – | – | – | – | – | – | –
C=CCSC(C)=O | > 100 µM | > 100 µM | > 100 µM | > 100 µM | > 100 µM | > 100 µM | > 100 µM | > 100 µM | > 100 µM | > 100 µM | – | – | – | – | – | – | – | – | – | –
COc1ccc(-c2c(-c3ccc(C#N)c(F)c3)nc(N3CCC(N)CC3)n(C)c2=O)cc1F | 41.8 µM | 41.5 µM | 52.8 µM | 30.6 µM | 28.5 µM | 63.1 µM | > 100 µM | 31.9 µM | 31.1 µM | 27.5 µM | 16.3 µM | 20 µM | 15.5 µM | 12 µM | 11.6 µM | 21.6 µM | 13.1 µM | 15.4 µM | 13.3 µM | 13.4 µM
CN(C)c1ccc2[nH]c3c(C(N)=O)cc(=O)c(=O)c=3oc2c1 | 14.2 µM | > 100 µM | 61.6 µM | > 100 µM | > 100 µM | 8.39 µM | 1.22 µM | > 100 µM | > 100 µM | 4.45 µM | 1.95 µM | 3.33 µM | 3.36 µM | 2.77 µM | 0.358 µM | 1.81 µM | 0.304 µM | 3.22 µM | 3.5 µM | 1.81 µM
CCS(=O)(=O)c1ccc(OC)c(Nc2ncc(-c3cccc(F)c3)o2)c1 | > 25 µM | > 25 µM | > 25 µM | > 25 µM | > 25 µM | > 25 µM | > 25 µM | > 25 µM | > 25 µM | > 25 µM | > 25 µM | 0.649 µM | > 25 µM | > 25 µM | > 25 µM | > 25 µM | > 25 µM | > 25 µM | > 25 µM | > 25 µM
COc1ccc2c(c1)C(=O)c1c-2n(CCCN(C)C)c(=O)c2cc([N+](=O)[O-])ccc12 | 13.6 µM | 0.556 µM | 16.4 µM | 1.05 µM | 2.29 µM | 0.188 µM | 0.21 µM | < 0.0188 µM | 12.9 µM | 0.892 µM | < 0.01 µM | 0.025 µM | 0.181 µM | < 0.0278 µM | < 0.01 µM | < 0.01 µM | < 0.01 µM | < 0.01 µM | 0.0483 µM | 0.0207 µM
